Source: patent US11780826B2 (Amgen Inc., priority 2017, dated 2023)

Test system: Bovine cardiac myofibrils
Assay: In vitro model of dose-dependent myofibril ATPase modulation (AC1.4, pyruvate kinase/lactate dehydrogenase-coupled ATPase assay at pCa25)
Assay type: biochemical
Settings: concentration at which ATPase activity was 1.4-fold higher than the bottom of the dose curve, mean of a minimum of two independent tests
Summary of the method: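 ATP turnover tracked as NADH absorbance loss at 340 nm, coupled via pyruvate kinase/lactate dehydrogenase, with 1 mM ATP, 2 mM MgCl2 and 12 mM K-PIPES at pH 6.80 (22° C) under EGTA/CaCl2 calcium buffering. Substrate was detergent-treated bovine cardiac myofibrils; 4-parameter curve fit, AC1.4 averaged over at least two runs.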

Structure (SMILES) | AC1.4
N#CC1CN(S(=O)(=O)N2CCC[C@H](C(=O)N3CCC[C@@H]3C(=O)NCc3cccc(F)c3F)C2)C1 [Example 516, 1-(((3S)-1-((3-cyano-1-azetidinyl)sulfonyl)-3-piperidinyl)carbonyl)-N-(2,3-difluorobenzyl)-D-prolinamide] | 2.446 µM
N#CC1CN(S(=O)(=O)N2CCO[C@H](C(=O)N3CCC[C@@H]3C(=O)NCc3cc(F)cc(F)c3)C2)C1 [Example 517, 1-(((2S)-4-((3-cyano-1-azetidinyl)sulfonyl)-2-morpholinyl)carbonyl)-N-(3,5-difluorobenzyl)-D-prolinamide] | 2.4485 µM
COC(=O)C1CC(S(=O)(=O)N2CCC[C@H](C(=O)N3CCC[C@@H]3C(=O)NCc3ccc(C(F)(F)F)cc3)C2)C1 (stereo partly drawn) [Example 518, methyl3-(((S)-3-((R)-2-((4-(trifluoromethyl)benzyl)carbamoyl)pyrrolidine-1-carbonyl)piperidin-1-yl)sulfonyl)cyclobutanecarboxylate] | 2.457 µM
CN1CC(C(NC(=O)[C@H]2C[C@H]3C[C@H]3N2C(=O)c2cccc(S(C)(=O)=O)c2)c2ccc(C(F)(F)F)cc2F)CC1=O (stereo partly drawn) [Example 519, (1R,3R,5R)-N-((2-fluoro-4-(trifluoromethyl)phenyl)(1-methyl-5-oxopyrrolidin-3-yl)methyl)-2-(3-(methylsulfonyl)benzoyl)-2-azabicyclo[3.1.0]hexane-3-carboxamide] | 2.367 µM
Cc1ccc(CNC(=O)[C@H]2CCCN2C(=O)c2cccc(S(=O)(=O)N3CC(C#N)C3)c2)nc1 [Example 520, 1-(3-((3-cyano-1-azetidinyl)sulfonyl)benzoyl)-N-((5-methyl-2-pyridinyl)methyl)-D-prolinamide] | 2.5075 µM
CCNc1ccccc1C(=O)N1CCC[C@@H]1C(=O)N[C@@H](c1ccc(C(F)(F)F)cc1F)C1CC1 [Example 521, N-((R)-cyclopropyl(2-fluoro-4-(trifluoromethyl)phenyl)methyl)-1-(2-(ethylamino)benzoyl)-D-prolinamide] | 2.551 µM
CCS(=O)(=O)c1cccc(C(=O)N2[C@@H](C(=O)N[C@@H](c3ccc(C(F)(F)F)cc3)C3(O)CCC3)C[C@H]3C[C@H]32)c1 [Example 522, (1R,3R,5R)-2-(3-(ethylsulfonyl)benzoyl)-N-((S)-(1-hydroxycyclobutyl)(4-(trifluoromethyl)phenyl)methyl)-2-azabicyclo[3.1.0]hexane-3-carboxamide] | 2.4145 µM
O=C(N[C@@H](c1ccc(C(F)(F)F)cc1F)C1CC1)[C@H]1CCCN1C(=O)c1cccc(C(O)(O)C(F)(F)F)c1 [Example 523, (R)—N—((R)-cyclopropyl(2-fluoro-4-(trifluoromethyl)phenyl)methyl)-1-(3-(2,2,2-trifluoro-1,1-dihydroxyethyl)benzoyl)pyrrolidine-2-carboxamide] | 2.582 µM
N#CC1CN(S(=O)(=O)N2CCC[C@H](C(=O)N3CCC[C@@H]3C(=O)NC(c3cc(F)ccc3F)C(F)F)C2)C1 (stereo partly drawn) [Example 524, (2R)-1-((S)-1-((3-cyanoazetidin-1-yl)sulfonyl)piperidine-3-carbonyl)-N-(1-(2,5-difluorophenyl)-2,2-difluoroethyl)pyrrolidine-2-carboxamide] | 2.583 µM
CS(=O)(=O)c1cccc(C(=O)N2CCC(F)(F)CC2C(=O)N[C@@H](c2ccc(C(F)(F)F)cc2F)C2CC2)c1 (stereo partly drawn) [Example 525, N-((R)-cyclopropyl(2-fluoro-4-(trifluoromethyl)phenyl)methyl)-4,4-difluoro-1-(3-(methylsulfonyl)benzoyl)piperidine-2-carboxamide] | 2.4285 µM
CS(=O)(=O)c1ccnc(C(=O)N2CCC[C@@H]2C(=O)N[C@@H](c2ccc(C(F)(F)F)cc2F)C2CC2)c1 [Example 526, N-((R)-cyclopropyl(2-fluoro-4-(trifluoromethyl)phenyl)methyl)-1-((4-(methylsulfonyl)-2-pyridinyl)carbonyl)-D-prolinamide] | 2.5923 µM
O=C(N[C@@H](c1ccc(C(F)(F)F)cc1F)C1COC1)[C@H]1C[C@H]2C[C@H]2N1C(=O)c1cncc(C(F)(F)F)c1 [Example 527, (1R,3R,5R)-N-((R)-(2-fluoro-4-(trifluoromethyl)phenyl)(3-oxetanyl)methyl)-2-((5-(trifluoromethyl)-3-pyridinyl)carbonyl)-2-azabicyclo[3.1.0]hexane-3-carboxamide] | 2.5985 µM
CS(=O)(=O)c1cccc(C(=O)N2C[C@@H](F)C[C@@H]2C(=O)N[C@@H](c2ccc(C(F)(F)F)cc2F)C2COC2)c1 [Example 528, (4S)-4-fluoro-N-((R)-(2-fluoro-4-(trifluoromethyl)phenyl)(3-oxetanyl)methyl)-1-(3-(methylsulfonyl)benzoyl)-D-prolinamide] | 2.4294 µM
O=C(N[C@@H](c1cc(F)c(Cl)cc1F)C1COC1)[C@H]1C[C@H]2C[C@H]2N1C(=O)c1cccc(C(F)(F)F)n1 [Example 529, (1R,3R,5R)-N-((R)-(4-chloro-2,5-difluorophenyl)(3-oxetanyl)methyl)-2-((6-(trifluoromethyl)-2-pyridinyl)carbonyl)-2-azabicyclo[3.1.0]hexane-3-carboxamide] | 2.4895 µM
O=C(N[C@@H](c1ccc(C(F)(F)F)cc1F)C1CC1)[C@H]1CCCN1C(=O)c1cccc(C2CCC2)c1 [Example 530, 1-(3-cyclobutylbenzoyl)-N-((R)-cyclopropyl(2-fluoro-4-(trifluoromethyl)phenyl)methyl)-D-prolinamide] | 2.614 µM
NS(=O)(=O)c1cccc(C(=O)N2C[C@@H](F)C[C@@H]2C(=O)N[C@@H](c2ccc(C(F)(F)F)cc2F)C2CC2)c1 [Example 531, (4S)-N-((R)-cyclopropyl(2-fluoro-4-(trifluoromethyl)phenyl)methyl)-4-fluoro-1-(3-sulfamoylbenzoyl)-D-prolinamide] | 2.553 µM
N#CC1CN(S(=O)(=O)N2CCC[C@H](C(=O)N3CCC[C@@H]3C(=O)NCc3cc(Cl)cc(C(F)(F)F)c3)C2)C1 [Example 532, N-(3-chloro-5-(trifluoromethyl)benzyl)-1-(((3S)-1-((3-cyano-1-azetidinyl)sulfonyl)-3-piperidinyl)carbonyl)-D-prolinamide] | 2.6285 µM
NC(=O)C1(c2cccc(C(=O)N3CCC[C@@H]3C(=O)N[C@@H](c3ccc(C(F)(F)F)cc3F)C3CC3)c2)CC1 [Example 533, 1-(3-(1-carbamoylcyclopropyl)benzoyl)-N-((R)-cyclopropyl(2-fluoro-4-(trifluoromethyl)phenyl)methyl)-D-prolinamide] | 2.5883 µM
C[C@@H](NC(=O)[C@H]1C[C@H]2C[C@H]2N1C(=O)c1cccc(S(C)(=O)=O)c1)c1cc(F)c(Cl)cc1F [Example 534, (1R,3R,5R)-N-((1R)-1-(4-chloro-2,5-difluorophenyl)ethyl)-2-(3-(methylsulfonyl)benzoyl)-2-azabicyclo[3.1.0]hexane-3-carboxamide] | 2.611 µM
O=C(NCc1ccc(C(F)(F)F)cc1)[C@H]1CCCN1C(=O)[C@H]1CCCN(S(=O)(=O)N2CC(OC(F)(F)F)C2)C1 [Example 535, 1-(((3S)-1-((3-(trifluoromethoxy)-1-azetidinyl)sulfonyl)-3-piperidinyl)carbonyl)-N-(4-(trifluoromethyl)benzyl)-D-prolinamide] | 2.69 µM
CCCCCOC1CN(S(=O)(=O)N2CCC[C@H](C(=O)N3CCC[C@@H]3C(=O)NCc3ccc(C(F)(F)F)cc3)C2)C1 [Example 536, 1-(((3S)-1-((3-(pentyloxy)-1-azetidinyl)sulfonyl)-3-piperidinyl)carbonyl)-N-(4-(trifluoromethyl)benzyl)-D-prolinamide] | 2.696 µM
O=C(NCc1ccc(C(F)(F)F)cc1)[C@H]1COCCN1C(=O)c1cccc(S(=O)(=O)N2CC3(CC3)C2)c1 [Example 537, (R)-4-(3-((5-azaspiro[2.3]hexan-5-yl)sulfonyl)benzoyl)-N-(4-(trifluoromethyl)benzyl)morpholine-3-carboxamide] | 2.7025 µM
N#CC1CN(S(=O)(=O)N2CCC[C@@H](C(=O)N3CCC[C@@H]3C(=O)NCc3ccc(C(F)(F)F)cc3F)C2)C1 [Example 539, 1-(((3R)-1-((3-cyano-1-azetidinyl)sulfonyl)-3-piperidinyl)carbonyl)-N-(2-fluoro-4-(trifluoromethyl)benzyl)-D-prolinamide] | 2.753 µM
C[C@@H](NC(=O)[C@H]1CCCN1C(=O)[C@H]1CCCN(S(=O)(=O)N2CC(C#N)C2)C1)c1ccc(C#N)cc1 [Example 540, 1-(((3S)-1-((3-cyano-1-azetidinyl)sulfonyl)-3-piperidinyl)carbonyl)-N-((1R)-1-(4-cyanophenyl)ethyl)-D-prolinamide] | 2.7885 µM
Cc1cc(C(=O)N2[C@@H](C(=O)N[C@@H](c3ccc(C(F)(F)F)cc3F)C3COC3)C[C@H]3C[C@H]32)c(NCCO)cn1 [Example 541, (1R,3R,5R)-N-((R)-(2-fluoro-4-(trifluoromethyl)phenyl)(3-oxetanyl)methyl)-2-((5-((2-hydroxyethyl)amino)-2-methyl-4-pyridinyl)carbonyl)-2-azabicyclo[3.1.0]hexane-3-carboxamide] | 2.789 µM
CS(=O)(=O)c1cccc(C(=O)N2C(=O)OC[C@@H]2C(=O)N[C@@H](c2ccc(C(F)(F)F)cc2F)C2CC2)c1 [Example 543, (4R)-N-((R)-cyclopropyl(2-fluoro-4-(trifluoromethyl)phenyl)methyl)-3-(3-(methylsulfonyl)benzoyl)-2-oxo-1,3-oxazolidine-4-carboxamide] | 2.813 µM
Cc1ccc(CNC(=O)[C@H]2CCCN2C(=O)[C@H]2CCCN(S(=O)(=O)N3CC(C#N)C3)C2)cc1C(F)(F)F [Example 544, 1-(((3S)-1-((3-cyano-1-azetidinyl)sulfonyl)-3-piperidinyl)carbonyl)-N-(4-methyl-3-(trifluoromethyl)benzyl)-D-prolinamide] | 2.8175 µM
